19 compounds from the CombiSolv-Exp solvation set (Vermeire and Green 2021) can be followed below.

A short description of the series: solvent given as SMILES.

As to `C(=Cc1ccccc1)c1ccccc1`, the “solvation free energy, 298 K” value runs as follows: (in C1CCOC1) -11.8 kcal/mol; (in C1COCCO1) -11.5 kcal/mol; (in CC(C)(C)O) -9.66 kcal/mol; (in CC(C)CC(C)(C)C) -9.92 kcal/mol; (in CC(C)CC(C)O) -9.81 kcal/mol; (in CC(C)CCCC(C)CCO) -10 kcal/mol. Further, the “solvation free energy, 298 K” value by setting is: (in CC(C)CCO) -9.88 kcal/mol; (in CC(C)CO) -9.73 kcal/mol; (in CC(C)O) -9.74 kcal/mol; (in CCC(C)(C)O) -9.84 kcal/mol; (in CCC(C)=O) -11.5 kcal/mol; (in CCC(C)O) -9.81 kcal/mol. Besides, the “solvation free energy, 298 K” value reads like this: (in CCCC(C)CO) -9.92 kcal/mol; (in CCCC(C)O) -9.91 kcal/mol; (in CCCCC(CC)CO) -10 kcal/mol; (in CCCCCC) -10.2 kcal/mol; (in CCCCCCC) -10.2 kcal/mol; (in CCCCCCCC) -10.2 kcal/mol. Besides, the “solvation free energy, 298 K” value (in CCCCCCCCCC) was -10.2 kcal/mol; the “solvation free energy, 298 K” value (in CCCCCCCCCCO) was -10.2 kcal/mol; the “solvation free energy, 298 K” value (in CCCCCCCCO) is -10.2 kcal/mol; the “solvation free energy, 298 K” value (in CCCCCCCO) was -10.2 kcal/mol; the “solvation free energy, 298 K” value (in CCCCCCO) is -10.1 kcal/mol; the “solvation free energy, 298 K” value (in CCCCCO) is -10.1 kcal/mol. In addition, the “solvation free energy, 298 K” value was -10 kcal/mol (in CCCCO); -11.2 kcal/mol (in CCCCOC(C)=O); -10.6 kcal/mol (in CCCCOCCCC); -9.97 kcal/mol (in CCCO); -9.99 kcal/mol (in CCO); -11.2 kcal/mol (in CCOC(C)=O). The “solvation free energy, 298 K” value was -11 kcal/mol (in CCOCC); -11.6 kcal/mol (in CN(C)C=O); -9.92 kcal/mol (in CO); -10.9 kcal/mol (in COC(C)(C)C); -11.2 kcal/mol (in COC(C)=O); -11.3 kcal/mol (in Cc1ccc(C)cc1). Moreover, the “solvation free energy, 298 K” value reads like this: (in Cc1cccc(C)c1) -11.2 kcal/mol; (in Cc1ccccc1C) -11.3 kcal/mol; (in ClC(Cl)(Cl)Cl) -11.2 kcal/mol; (in Clc1ccccc1) -11.5 kcal/mol; (in O) -3.79 kcal/mol.
For the compound `CC1CCC(C(C)C)C(=O)C1` (stereo not drawn), the “solvation free energy, 298 K” value (in O) was -2.53 kcal/mol.
The same measure, in the same setting: next, `CC1=C2CC3CCC(C)C2(CC1)C3(C)C` (stereo not drawn): 0.78 kcal/mol; `O=C(O)CCCCCCCc1ccccc1`: -8.98 kcal/mol.
Take `CCCN(CCC)N=O`: under “in CC(C)CC(C)(C)C”, the “solvation free energy, 298 K” value is -6.56 kcal/mol.
Take `CCNCc1ccc(C)cc1`: where the note is “in O”, the “solvation free energy, 298 K” value is -6.02 kcal/mol.
Same read-out and setting: next, `C=CCCl`: -0.57 kcal/mol; `C=CC1(C)CCC(C(=C)C)CC1C(=C)C` (stereo not drawn): -0.42 kcal/mol; `CCCCCc1ccccc1`: -0.23 kcal/mol.
With `COC(=O)C(C)(C)C`, the “solvation free energy, 298 K” value (in O) was -2.4 kcal/mol.
For `FC(F)Cl`, the “solvation free energy, 298 K” value is -1.69 kcal/mol (in CCCCCCCC(=O)OCC(COC(=O)CCCCCCC)OC(=O)CCCCCCC) and -1.16 kcal/mol (in CCCCCCCCC).
As to `ClC=CCl`, the “solvation free energy, 298 K” value is -3.98 kcal/mol (in COC(C)=O) and -3.71 kcal/mol (in ClCCCl).
`CC(C)CCCCOC(=O)c1ccccc1C(=O)OCCCCC(C)C`: the “solvation free energy, 298 K” value (in O) was -6.55 kcal/mol.
`O=CO`: the “solvation free energy, 298 K” value is -2.89 kcal/mol (in C=CCCCCCCC=C) and -2.47 kcal/mol (in C=CCCCCCCCCCCCCCC).
As to `Nc1ccccc1[N+](=O)[O-]`, the “solvation free energy, 298 K” value (in CC(C)CC(C)(C)C) is -7.5 kcal/mol; the “solvation free energy, 298 K” value (in CCCCCC) is -7.51 kcal/mol; the “solvation free energy, 298 K” value (in O) was -7.43 kcal/mol.
Turning to `c1ccc2c(c1)Cc1ccccc1-2`, the “solvation free energy, 298 K” value is -10.4 kcal/mol (in CC(=O)N(C)C); -8.84 kcal/mol (in CC(C)(C)O); -9.32 kcal/mol (in CC(C)CC(C)(C)C); -8.95 kcal/mol (in CC(C)CCO); -9.21 kcal/mol (in CC(C)CO); -8.92 kcal/mol (in CC(C)O). Further, the “solvation free energy, 298 K” value is, setting by setting: (in CCC(C)O) -8.95 kcal/mol; (in CCCC(C)O) -9.03 kcal/mol; (in CCCCC(CC)CO) -9.14 kcal/mol; (in CCCCCC) -9.29 kcal/mol; (in CCCCCCC) -9.3 kcal/mol; (in CCCCCCCC) -9.29 kcal/mol. Also, the “solvation free energy, 298 K” value runs as follows: (in CCCCCCCCC=CCCCCCCCC(=O)OCC(COC(=O)CCCCCCCC=CCCCCCCCC)OC(=O)CCCCCCCC=CCCCCCCCC) -9.74 kcal/mol; (in CCCCCCCCCC) -9.32 kcal/mol; (in CCCCCCCCCCO) -9.33 kcal/mol; (in CCCCCCCCO) -9.32 kcal/mol; (in CCCCCCCO) -9.33 kcal/mol; (in CCCCCCO) -9.26 kcal/mol. Besides, the “solvation free energy, 298 K” value was -9.24 kcal/mol (in CCCCCO); -9.15 kcal/mol (in CCCCO); -9.09 kcal/mol (in CCCO); -8.93 kcal/mol (in CCO); -10.5 kcal/mol (in CN1CCCC1=O); -8.85 kcal/mol (in CO). The “solvation free energy, 298 K” value (in O) was -3.34 kcal/mol.
With `ClC(Cl)=C(Cl)Cl`, the “solvation free energy, 298 K” value was -5.37 kcal/mol (in C1CCCC1); -5.43 kcal/mol (in C1CCOC1); -5.1 kcal/mol (in C1COCCO1); -4.98 kcal/mol (in CCC(C)=O); -4.88 kcal/mol (in CCCCCCCCCCCCCCCC); -4.27 kcal/mol (in CS(C)=O). Also, the “solvation free energy, 298 K” value reads like this: (in ClC(Cl)(Cl)Cl) -5.48 kcal/mol; (in ClCCCl) -5.05 kcal/mol; (in O) -0.06 kcal/mol.
For `CC1CCC2=C1CC1CCC2(C)C1(C)C` (stereo not drawn), the “solvation free energy, 298 K” value (in O) was 0.78 kcal/mol.
As for `Cc1ccc(C=O)o1`, the “solvation free energy, 298 K” value (in CCCCCCCC) is -4.95 kcal/mol; the “solvation free energy, 298 K” value (in CCCCCCCCCC) is -5.29 kcal/mol; the “solvation free energy, 298 K” value (in O) was -5.5 kcal/mol.
